According to patent publication US8318798B2, “Therapeutic agent for neurodegenerative disease” (priority 2005, dated 2012):

Tests used:
[1] = tested on: mitochondrial complex 1; test: Maintenance of mitochondrial Complex 1 activity in 6-hydroxydopamine-treated SH-SY5Y cells; format: cell-based, human; conditions: compound 1 μM, 24 h before 50 μM 6-hydroxydopamine, 6 h; compared with control (FIG. 13)
Protocol: In this example, the effect of compounds 1, 5, and 8 in maintaining the activity of mitochondrial complex 1 was examined.
6-Hydroxydopamine induces oxidative stress by degrading the enzymic activity of Complex 1 and thereby causing a functional disorder. It is considered that the compounds identified here would suppress neuronal death due to oxidative stress by preventing deactivation of complex 1. Therefore, changes in activity of complex 1 resulting from addition of the compound was measured.
SH-SY5Y human neurons were plated onto a 10 cm dish and cultured to 80% confluency. Compounds 1, 5, and 8 individually were added at the compound concentration of 1 μM, or sterile water was added. 24 hours after the addition of the compound or sterile water, 6-hydroxydopamine (PBS solvent) was added at a 6-hydroxydopamine concentration of 50 μM, or the same amount of PBS (containing no 6-hydroxydopamine) was added. 6 hours after the addition of 6-hydroxydopamine, the cells were collected. […] After quantifying the protein, 100 μg of the mitochondrial protein was added to a cuvette filled with a reaction buffer, and the total amount was made up to 480 μL. After incubation at 37° C. for 3 minutes, 20 μL of 5 mM NADH was added to the cuvette, and decrease in absorbance at 340 nm was monitored for 4 minutes using an absorptiometer. […]

[2] = target: T1, DJ-1 protein (Homo sapiens, UniProt Q99497); test: Suppression of transition of DJ-1 to oxidized form (H2O2 treatment, isoelectric focusing); format: biochemical; conditions: 0.2 mM or 2 mM H2O2, room temperature 1 hour; isoelectric focusing (FIG. 12)
T1 sequence (Q99497 1-189): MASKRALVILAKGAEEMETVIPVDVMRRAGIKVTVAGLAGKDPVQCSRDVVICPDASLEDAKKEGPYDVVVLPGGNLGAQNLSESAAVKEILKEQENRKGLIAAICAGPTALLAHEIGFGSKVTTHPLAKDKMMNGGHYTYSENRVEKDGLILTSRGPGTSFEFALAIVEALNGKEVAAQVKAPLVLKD
Protocol: In this example, it was confirmed that compound 1 and compound 5 suppressed the transition of DJ-1 to an oxidized form.
0.5 mg of purified DJ-1 protein was dissolved in 1 mL of PBS. 10 μL of 1 mM compound 1, 5, or 7 was added to 500 μL of this DJ-1 protein solution, and rotated at 4° C. for 1 hour. Subsequently, 0.4 or 4 mM hydrogen peroxide (H2O2) was added thereto, the mixture was allowed to stand at room temperature for 1 hour then the hydrogen peroxide concentration became 0.2 mM or 2 mM. Further, dialysis was carried out 3 times with PBS for a total of 4.5 hours, followed by an isoelectric focusing 0.5 μg of the DJ-1 protein . The reagents used in the isoelectric focusing were as follows. • Gel solution for isoelectric focusing: 9.2 M Urea, 2% NP-40, 4% acrylamide, 1% Ampholine (pH 5-8; Amersham Bioscience), 1% Ampholine (pH 3-10; Amersham Bioscience) • Sample Buffer: 5 M Urea, 2 M ThioUrea, 2% NP-40, 5% Glycerin, 5% 2-mercaptoethanol, 1.6% Ampholine (pH 5-8), 0.4% Ampholine (pH 3.5-10) • Protection solution: 8 M Urea, 0.8% Ampholine (pH 5-8), 0.2% • Ampholine (pH 3.5-10) • Electrophoresis Buffer+electrode: 0.02 M Phosphoric acid • −electrode: 0.02 M NaOH • Towbin: 25 mM Tris, 192 mM Glycine

[3] = target: T1, DJ-1 protein; test: Binding to DJ-1 protein by AffinixQ quartz oscillator frequency change; conditions: compound fixed on sensor chip; DJ-1 protein vs BSA added (FIG. 11)
Excerpt: The AffinixQ is an instrument for quantifying interaction between biomolecules at the order of nanograms by changes in frequency of the crystal oscillator. It utilizes the proportional relationship between change in frequency of the quartz oscillator and the weight of the adherings on the surface of the quartz oscillator.
The compound was fixed on top of the sensor chip, which is the oscillator, using an amino coupling reagent. The sensor chip onto which the compound had been fixed was immersed in a measurement vessel filled with 8 mL of PBS (phosphate buffer), and held until the frequency became constant. Following this, 8 μL of 1 mg/mL DJ-1 protein or BSA (bovine serum albumin) was added to the measurement vessel.

[4] = tested on: dopamine neurons; test: TH staining of dopamine neurons in rat midbrain substantia nigra after 6-OHDA injection; format: in vivo; conditions: 1 mM compound injected simultaneously with 6 mM 6-OHDA (FIG. 16)
Protocol: The midbrain substantia nigra (SNpc) was dissected out and fixed in a 100 mM phosphate buffer containing 4% of paraformaldehyde for 2 days, and then submerged in 100 mM phosphate buffer (containing 15% of sucrose and 0.1% of sodium azide). A 20 μm thick slices were prepared using Cryostat, and submerged in a 100 mM phosphate buffer containing 0.3% Triton X-100 (PBS-T).
These brain slices were reacted with anti-tyrosine hydroxylase (TH: a dopamine-biosynthetic enzyme and marker for dopamine neurons, manufactured by Sigma, 1:20,000 dilution) at 4° C. for 3 days, then washed, and reacted with a biotinylated anti-mouse IgG antibody (1:2,000 dilution) at room temperature for 2 hours. Subsequently, avidin peroxidase coloration was carried out using an ABC kit (Vector Laboratories) at room temperature for 1 hour. After washing several times with PBS-T, coloration was carried out by nickel ammonium-containing 3,3′-diaminobenzidine (DAB).
In the left substantia nigra into which only 6-OHDA was injected, TH staining was not observed and thus dopaminergic neuron death was observed. In the right substantia nigra, which was not injected with 6-OHDA, live dopamine neurons were observed (FIG. 16 (1)).

[5] = tested on: SH-SY5Y human neurons; test: Suppression of 6-hydroxydopamine-induced cell death of SH-SY5Y human neurons (Cell Counting Kit-8 / MTT assay); format: cell-based; conditions: compound 1 μM, 24 h before 100 μM 6-hydroxydopamine, 40 h; compared with control (FIG. 9)
Protocol: In this example, the effect of compounds 1 to 8 in suppressing cell death of SH-SY5Y human neurons was examined.
SH-SY5Y human neurons ([…], USA) were plated on a 96-well plate, and cultured to 80% confluency.
Compounds 1 to 8 in sterile aqueous solutions were individually added thereto at a sample concentration of 1 μM, or sterile water was added as a control.
24 hours after the addition of compounds 1 to 8 or sterile water, 6-hydroxydopamine (PBS solvent) (Wako Pure Chemical Industries, Ltd.) was added to each at a 6-hydroxydopamine concentration of 100 μM, or the same amount of PBS (containing no 6-hydroxydopamine) was added. Furthermore, 40 hours after the addition of 6-hydroxydopamine, Cell Counting Kit-8 was added for carrying out an MTT assay.
After 3 hours, a viable cell count was measured by measuring the absorbance at wavelength of 450 nm. For each of compounds 1 to 8 and the control, the viability was obtained from ‘(the viable cell count when 6-hydroxydopamine was added)/(the viable cell count when no 6-hydroxydopamine was added)’.
Compared with the control and compounds 7 and 8, it can be seen that the addition of any one of compounds 1 to 6 enhances the viability.

[6] = tested on: rats injected with 6-hydroxydopamine (6-OHDA); test: Methamphetamine-induced rotation of rats injected with 6-OHDA into midbrain left substantia nigra; format: in vivo, rat; conditions: 1 mM compound injected simultaneously with 6 mM 6-OHDA into left substantia nigra; methamphetamine after 9 weeks
Protocol: In this example, compound 1, 5, or 8 was injected into rat midbrain left substantia nigra and the effect thereof was examined. • (1) Either 6 mM of 6-hydroxydopamine (6-OHDA) alone or mixtures of 6 mM of 6-OHDA and 1 mM of each compound was injected into the midbrain left substantia nigra (4.8 mm×1.8 mm, 7.8 mm depth) of rats (Wister rat, male, 250 g). Where the rat was injected with 6 mM of 6-hydroxydopamine (6-OHDA) in midbrain left substantia nigra, the right-side substantia nigra was intact but in the left-side oxidative stress induced the death of dopamine neurons, and the rat rotate in a clockwise direction due to the imbalanced amount of acting dopamine, showing a behavioral abnormality characteristic of Parkinson's disease patients.
After 9 weeks, the rats were injected with methamphetamine (Dainippon Pharma Co., Ltd.), which causes a dopamine release, leading to a release of large amount of dopamine from dopamine neurons into the striatum. Because of the imbalance in the amounts of released dopamine between the left and right substantia nigra the rats started to rotate in a clockwise direction. The rats were placed in a rotameter, and the number of rotations was measured. The total number of rotations over 60 minutes is shown in FIG. 14, and the number of rotations at every 5 minutes over time is shown in FIG. 15. […]

| Compound | binding to DJ-1 protein (frequency change) [3] | dopaminergic neuronal death in left substantia nigra (TH staining) [4] | further results |
| --- | --- | --- | --- |
| CC1(C)OC2C(=O)O[C@@H](n3cnc4c(N)ncnc43)C2O1 (some centres unmarked) [compound 1] | bind to DJ-1 protein | neuronal death was considerably suppressed | Complex 1 activity [1]: Complex 1 activity was maintained; transition of DJ-1 protein to an oxidized form [2]: suppressed the transition of DJ-1 protein to an oxidized form |
| CS(=O)(=O)O[C@H]1CO[C@@H](Cn2cnc3c(N)ncnc32)C1O (some centres unmarked) [compound 2] | bind to DJ-1 protein | – | – |
| CC(=O)O[C@H](CO)[C@H](O)C(O)Cn1cnc2c(N)ncnc21 (some centres unmarked) [compound 4] | bind to DJ-1 protein | – | – |
| COc1ccc(CC(=O)NCCc2cc(OC)c3c(c2)OCO3)cc1OCc1ccccc1 [compound 5] | – | neuronal death was considerably suppressed | Complex 1 activity [1]: Complex 1 activity was maintained; transition of DJ-1 protein to an oxidized form [2]: suppressed the transition of DJ-1 protein to an oxidized form |
| NC(=O)C(CS(N)(=O)=O)NC(=O)C(Cc1ccccc1)NC(=O)CNC(=O)OCc1ccccc1 (centres unmarked) [compound 6] | bind to DJ-1 protein | – | – |
| CC1(C)OC2C(O1)[C@@H](CO)O[C@H]2n1cnc2c(NC(=O)C(C)(C)C)ncnc21 (some centres unmarked) [compound 7] | – | – | viability (effect in suppressing cell death) [5]: did not have such effects |
| COCO[C@@H](/C=C/C(=O)OCc1ccccc1)[C@@H](CCO[Si](C)(C)C(C)(C)C)C(Cc1ccccc1)Cc1ccccc1 [compound 8] | – | did not have such effect | effect on behavioral abnormality (number of rotations), in words [6]: did not show such effect; viability (effect in suppressing cell death) [5]: did not have such effects |
